This test relates to CEM cells HIV-1 protection, formazan growth assay. As to the kind of experiment: NCI AIDS Antiviral Assay. The following applies: for IC50: measured here: growth of uninfected CEM cells. The procedure, abridged: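 Protection of CEM cells against HIV-1 measured as cell growth via soluble formazan read-out, with five concentrations tested on both infected and uninfected cells; failure to protect may reflect toxicity.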

Several values for one entry are separate records, joined by “and”; a condition that tells them apart may be missing. Identical values can stand only once. Activity calls are given as the source filed them.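 Rule for the calls: active = compounds giving half or more protection of infected cells from virus-caused growth loss, again on retest; inactive = the rest.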

Take `O=C(Nc1ccc(C2=NCCN2)cc1)c1ccc(C(=O)Nc2ccc(C3=NCCN3)cc2)c(O)c1`: the EC50 is 55 µM and the IC50 stood at 91.2 µM.

`CCOC(=N)CCCSSc1ccc(N=[N+]=[N-])cc1`: the EC50 is over 200 µM and the IC50 amounted to 25.7 µM.

As to `O=C1CC(=O)N(CCc2ccccc2)S(=O)(=O)N1CCc1ccccc1`, the EC50 is over 200 µM and the IC50 is 35.5 µM.

For the molecule `c1csc(-c2ccsc2-c2ccsc2)c1`, the EC50 was over 200 µM and the IC50 was 87.1 µM.

Turning to `Clc1cccc(C=NC23CC4CC(CC(C4)C2)C3)c1Cl`, the EC50 was over 200 µM and the IC50 came out at 13.2 µM.

`O=C1C=CC(=O)[C@H]2C3C=CC(C4C3C3(Cl)C(Cl)=C(Cl)[C@]4(Cl)C3(Cl)Cl)[C@@H]12` (some centres not stated): the EC50 is over 200 µM and the IC50 stood at 12 µM.

Turning to `COc1ccc(C(c2c(O)c3ccccc3oc2=O)c2c(O)c3ccccc3oc2=O)c(OC)c1`, the EC50 was over 200 µM and the IC50 amounted to 85.1 µM.

Consider `COC1/C=C/C=C/C=C/CC(OC(=O)C(C)NC(=O)C2CCCCC2)C(C)C(O)/C(C)=C\CCc2c(O)c(cc3c2SCC(=O)N3)NC(=O)C1` (configuration not stated), for which the EC50 is over 2 µM and the IC50 was found to be 0.229 µM.

On to `CC(C)N=c1sc(-c2ccccc2)c(C#N)c(=O)n1C(C)C`, for which the EC50 was over 75.9 µM and the IC50 amounted to 55 µM.

On to `O=C(Nc1ccccc1)c1cc(S(=O)(=O)Nc2n[nH]c(=O)n2-c2ccccc2)c(S)cc1Cl`, for which the EC50 is 89.1 µM and the IC50 was over 200 µM.

In the case of `c1cc[c]([Sn]([S]c2cccc3cccnc23)([c]2ccccc2)[c]2ccccc2)cc1`, the result was inactive.

Turning to `CN(C)c1cccc2c1C(=O)C=CC21c2ccc(N(C)C)c3c(N(C)C)ccc(c23)C(c2ccccc2)C1c1ccccc1` (configuration not stated), the EC50 was over 100 µM and the IC50 is 7.08 µM.

Consider `CC(SCCCCCCCCCCCCSC(C)C(=O)O)C(=O)O` (configuration not stated), for which the EC50 was over 79.4 µM and the half-maximal inhibitory concentration (IC50) is over 79.4 µM.

Regarding `COc1ccc(N=Cc2ccc(N(CCC#N)S(=O)(=O)c3ccccc3)cc2C)cc1`, the EC50 is over 219 µM and the IC50 is 112 µM.

Turning to `C(=N\N=C\c1ccccn1)/c1ccccn1`, the EC50 was over 200 µM and the IC50 turned out to be 61.7 µM.

Turning to `N#C[C@H](c1nc2ccccc2s1)c1nc2ccccc2nc1Cl`, the EC50 is over 100 µM and the IC50 is over 100 µM.

Consider `N#Cc1c(O)c(N=Nc2ccccc2F)c(=O)n2c1[nH]c1ccccc12`, for which the EC50 is over 200 µM and the IC50 came out at 18.6 µM.

Consider `O=C(NNc1ccnc2cc(Cl)ccc12)/C(=C/c1ccc2c(c1)OCO2)NC(=O)c1ccccc1`, for which the EC50 is over 100 µM and the IC50 was 8.51 µM.

As for `CC1OC(c2ccc3c(c2O)C(=O)C2=C(C3=O)[C@H]3OC(=O)C[C@H]3O[C@@H]2C)CC(N(C)C)C1O` (some centres not stated), the EC50 is over 107 µM and the IC50 turned out to be 0.0537 µM.

With `CC1CC(C)(C)N/C(=C/C(=O)N2Cc3cc4ccccc4nc3C2)O1` (configuration not stated), the EC50 is over 200 µM and the IC50 is over 200 µM.

On to `COc1cc(C(=O)OC2CC(C)=CC[C@@]3(C)CC[C@](O)(C(C)C)C23)ccc1O` (some centres not stated), for which the EC50 is over 200 µM and the IC50 turned out to be 8.51 µM.

`Oc1ccc(Cl)cc1-c1[nH]c(=S)nc(-c2ccccc2)c1Cl`: the EC50 is over 200 µM and the IC50 was over 200 µM.

As for `c1cnc2c(c1)ccc1cccnc12`, the EC50 was over 200 µM and the IC50 came to 1.17 µM.

Take `CCOP(=O)(OCC)C(Nc1ccc(F)cc1)c1ccccc1` (configuration not stated): the EC50 is over 200 µM and the IC50 was found to be 89.1 µM.

On to `COc1ccc(C[C@H]2COC(=O)[C@@H]2Cc2cccc(Br)c2)cc1OC`, for which the EC50 is over 200 µM and the IC50 turned out to be 31.6 µM.

With `[N-]=[N+]=CC(=O)OC1CCc2ccccc21` (configuration not stated), the EC50 is over 200 µM and the IC50 was over 200 µM.

For `Cc1ccc(CCCCCOc2ccc(C3=NCCO3)cc2)s1`, the outcome was inactive.

For `O=C1CC(CC(=O)c2ccc(Br)cc2)C(=O)/C1=C(/O)c1ccc(Br)cc1` (configuration not stated), the EC50 was over 200 µM and the 50% inhibitory concentration (IC50) came out at 41.7 µM.

Regarding `CCOC(=O)C1=C(C)NC(=S)NC1c1ccccc1` (configuration not stated), the EC50 is over 93.3 µM and the IC50 was over 93.3 µM.

As for `CC1=C(C)C(=O)C(C2=C(C3=CC(=O)C(C)=C(C)C3=O)C(=O)c3ccccc3C2=O)=CC1=O`, the EC50 was over 200 µM and the IC50 is 5.62 µM.

On to `CCOC(=O)C1C(=O)CC(C)(O)C(C(=O)OCC)C1c1ccc(O)c(OC)c1` (configuration not stated), for which the EC50 is over 200 µM and the IC50 is over 200 µM.

Regarding `CCOC(=O)C1=CC(C(=O)OCC)=C2C=CC=C3C=CC=C1N32`, the EC50 was over 57.5 µM and the IC50 is 12.9 µM.

`Cc1ccc(NC(=O)/C(C#N)=C/c2ccccc2)c(C)c1`: the EC50 was over 24.5 µM and the IC50 was over 24.5 µM.

For the molecule `Cc1[nH]c(=O)[nH]c1C(=O)c1ccc(-n2ccnc2)cc1`, the EC50 was over 14.1 µM and the IC50 was over 14.1 µM.

For the molecule `Cc1ccccc1C1N=C2Oc3ccccc3C=C2C(=O)N1` (configuration not stated), the EC50 was over 100 µM and the IC50 is 1.41 µM.

As to `O=Cc1ccc(C(F)(F)F)cc1.[C-]#[O+].[C-]#[O+].[C-]#[O+].[Cr]`, the EC50 was over 20 µM and the IC50 was 3.98 µM.

In the case of `Cc1c(C(Cc2ccccc2N(C)C(=O)/C=C\C(=O)O)c2c[nH]c3ccccc23)c2ccccc2n1C` (configuration not stated), the EC50 was over 363 µM and the IC50 stood at 22.4 µM.

Take `COc1c(C)cc2c(C(C)C)c(O)c(O)c(C=O)c2c1O`: the EC50 was over 871 µM and the IC50 is 14.8 µM.

As for `CN1N=C(c2ccncc2)OC1c1cccc(F)c1` (configuration not stated), the EC50 is over 200 µM and the IC50 came to 79.4 µM.

Consider `S=C1NC(=NC2CCCCC2)C2(CCN(CCc3ccccc3)CC2)N1c1ccccc1`, for which the EC50 is over 100 µM and the IC50 was determined as 53.7 µM.

As for `CSc1nc(N)c2c(-c3ccccc3)c3c(nc2n1)CCCC3`, the EC50 was over 200 µM and the IC50 was over 200 µM.

As to `COc1cc2c(cc1OC)C(C1CC1)ON(C)CC2` (configuration not stated), the EC50 is 158 µM and the IC50 was over 200 µM.

Turning to `C/C1=C2\CC(OC3OCC(O)C(O)C3O)C(C)C2C/C=C(/C=O)[C@H]2C[C@@]3(C)CCC(C(C)C)C3CC12` (some centres not stated), the EC50 was over 93.3 µM and the IC50 was over 93.3 µM.

`CCOC(=O)C1(c2ccccc2)CCCNCC1` (configuration not stated): the EC50 was over 112 µM and the IC50 was over 112 µM.

As to `COc1c(O)cc2oc(-c3ccc(O)c(O)c3)cc(=O)c2c1O`, the EC50 was over 38 µM and the IC50 was found to be 22.9 µM.

Regarding `COc1cc(C(C)O)c[n+](CCc2c[nH]c3ccccc23)c1` (configuration not stated), the EC50 was over 234 µM and the IC50 was over 234 µM.

For `COc1ccc(C(CC(=O)c2cccs2)C(=O)c2ccc3c(c2)OCO3)cc1` (configuration not stated), the EC50 is over 200 µM and the IC50 came out at 102 µM.

In the case of `COc1ccc2oc(=O)c(-c3csc(-c4ccccc4)n3)cc2c1`, the outcome was inactive.

As for `O=C(NC/C=C/Br)Nc1cnc2ccccc2c1`, the EC50 is over 200 µM and the IC50 is 151 µM.

In the case of `COC[C@@]12CCC(OC)C34[C@@H]5C[C@@]6(O)C(OC(=O)c7ccccc7)[C@@H]5[C@](OC(C)=O)(C[C@@H]6OC)[C@@H](C(OC)[C@@H]31)[C@@H]4N(C=O)C2` (some centres not stated), the result was inactive.

In the case of `CC1C2(C)OC(=N)C(C#N)(C(C)O2)C1(C#N)C#N` (configuration not stated), the EC50 was over 200 µM and the IC50 stood at 9.77 µM.

For the molecule `O=C(CSc1cc(-c2ccc(Cl)cc2)s[s+]1)c1ccccc1`, the EC50 was over 200 µM and the IC50 was determined as 52.5 µM.

As to `N#C/C(C(=O)Nc1ccccc1)=C(/N)N1CCCC1`, the EC50 was over 200 µM and the 50% inhibitory concentration (IC50) worked out at 174 µM.

On to `Nc1nc2c(ncn2C2CCC(CO)O2)c(=O)n1C(=O)c1ccccc1` (configuration not stated), for which the EC50 is 37.2 µM and the IC50 is over 100 µM.

As to `CNc1c(Cl)cccc1S(=O)(=O)c1ccccc1[N+](=O)[O-]`, the EC50 was 3.31 µM and the IC50 was over 200 µM.

As to `O=C(CC(=O)Nc1cccc(Cl)c1)NNCC(=O)Nc1nnc(-c2ccccc2)s1`, the EC50 was over 22.4 µM and the IC50 was over 22.4 µM.

For the molecule `O=C(O)c1cc(Cc2cc(Cl)c(O)c(C(=O)O)c2)cc(Cl)c1O`, the EC50 was over 501 µM; the IC50 was 347 µM and 204 µM.

With `Cc1ccnc(SC(F)(F)c2nc3ccccc3o2)n1`, the EC50 was 0.263 µM and the IC50 came to 2 µM.

Take `C#CCN(Cc1ccc2nc(-c3ccccc3)c(Cl)nc2c1)c1ccc(F)cc1`: the EC50 is over 200 µM and the IC50 was determined as 27.5 µM.

On to `COc1ccc(N=C2SC(=N/N=c3\sc4ccccc4n3C)SC2=Nc2ccc(OC)cc2)cc1`, for which the EC50 was over 200 µM and the IC50 stood at 63.1 µM.

`CCCCCCCCCCCCCCC(C(=O)O)S(=O)(=O)O` (configuration not stated): the EC50 is over 200 µM and the IC50 was determined as 155 µM.

For `O=C(/C=C/c1cccs1)c1ccc(C(=O)/C=C/c2cccs2)cc1`, the EC50 was over 200 µM and the IC50 stood at 45.7 µM.

For `CCOC(=O)C1(C(F)(F)F)N=C(CC)OC(N2CCOCC2)=N1` (configuration not stated), the EC50 was over 200 µM and the IC50 is over 200 µM.

Turning to `CC(NS(=O)(=O)c1ccc([N+](=O)[O-])cc1)C(=O)O` (configuration not stated), the outcome was inactive.

Take `COc1ccc(/C=C/C(=O)c2c(-c3ccccc3)nn(C)c(=O)c2N2CCCC2)cc1`: the EC50 was over 67.6 µM and the IC50 is over 67.6 µM.

Consider `Cc1ccc(NC(=O)CCc2nc(N)nc(N)c2-c2ccccc2)cc1C`, for which the EC50 is over 692 µM and the IC50 is over 692 µM.

On to `CCCNC(=O)SCc1ccccc1`, for which the outcome was inactive.

As for `c1ccc(-c2nn3c(-c4ccccc4)nnc3o2)cc1`, the EC50 was over 200 µM and the IC50 was 40.7 µM.

On to `CCC(=O)OC1CCn2c1nc1c2C(=O)C(C)=C(NC(C)=O)C1=N` (configuration not stated), for which the EC50 was over 200 µM and the half-maximal inhibitory concentration (IC50) was 3.55 µM.

On to `COP1(=O)Oc2ccccc2C(=O)C(C(F)(F)F)(C(F)(F)F)O1` (configuration not stated), for which the EC50 was over 692 µM and the IC50 worked out at 295 µM.

As to `CC1CCCC(C)N1Cc1cccnc1` (configuration not stated), the result was inactive.

On to `COc1ccc(-c2c(-c3ccccc3)c(C)c3ccccn23)cc1`, for which the EC50 was over 200 µM and the IC50 is 42.7 µM.

The record behind these values is PubChem BioAssay AID179 (DTP/NCI, 2004).
